Results published in article PMC5301252, “A new approach to quantification of mAb aggregates using peptide affinity probes” (Scientific Reports, 2017).

Legend:
[1] = test system: NISTmAb aggregates generated by agitation; assay: Phage ELISA, binding to aggregated NISTmAb versus control NISTmAb; details: phage clone displaying the peptide, 2 hours, room temperature
Description: (§1) In the second step, a sample of the cross-linked NISTmAb was used as bait to screen a Ph.D.−12 phage display peptide library. The bait represents a mixture of monomer and cross-linked aggregated NISTmAb; this was also the only occasion when cross-linked sample was used. Phage display panning was performed in a subtractive manner. The library was initially depleted with control non-aggregated NISTmAb using three iterative cycles. The unbound phage was then screened on cross-linked NISTmAb aggregates, again using three iterative cycles of phage binding, elution, and amplification. After these rounds of panning, the single phage plaques were randomly picked up and amplified, and phage DNA was submitted for sequencing. In parallel, the ability to bind NISTmAb aggregates was evaluated using phage enzyme-linked immunosorbent assay (ELISA) for all selected phage clones. […] Clones #1 and #4 show respectively 9-fold and 7-fold better binding toward aggregated NISTmAb, compared to their binding toward control non-aggregated NISTmAb. […]
(§2) To assess the binding ability of the selected phages toward NISTmAb aggregates, 1 × 10^10 pfu of P02-C06 phage was incubated with 50 μg of NISTmAb aggregates at room temperature for 2 hours. […] Tetramethybezidine substrate reagent (eBioscience, San Diego, CA) was subsequently added and absorbance was read at 450 nm.

[2] = test system: control non-aggregated NISTmAb; assay: Phage ELISA, binding to control NISTmAb; details: phage clone displaying the peptide; 2 hours, room temperature; absorbance 450 nm; three analytical replicates
Description: as §1, §2

fold better binding toward aggregated NISTmAb compared to control non-aggregated NISTmAb ([1]; 1 × 10^10 pfu, HRP anti-M13, absorbance 450 nm, three analytical replicates): 7 -fold
affinity toward non-aggregated NISTmAb, compared to other clones [2]: lowest
Sequence: GNNPLHVHHDKRGGG [P02-C04]
binding preference ([1]; aggregated vs control NISTmAb, absorbance 450 nm): preferential binding to NISTmAb aggregates
